The test system of one data set is D. melanogaster adults. Put plainly: Vapor avoidance assay (choice between AITC tube and DMSO tube). To be noted: dTrpA1 loss-of-function mutants, P<0.0001. The class given is in vivo, Drosophila melanogaster. The protocol:
Vapor avoidance assay: One to three day-old flies were collected, knocked out by CO2, and kept on a fresh food at least 24 hrs before use. Choice apparatus was as previously described (3). ˜200 mM AITC was prepared daily by diluting 1 part of 99% AITC (Sigma) in 49 parts of DMSO. 1 microliter of diluted AITC was placed on the tip of 16-gauge needle (plugged by bending), inserted in bottom of a capped 14-ml polypropylene tube and allowed to diffuse for 2 min prior to use. 1 microliter of DMSO alone was placed on a needle tip inserted into the other 14-ml tube. During diffusion period, flies were transferred to the apparatus held within the fly elevator. After diffusion period, AITC tube was uncapped and inserted one opening of the choice chamber, other opening contained vehicle only tube. […] AITC and vehicle only sides were alternated to offset any bias caused by possible asymmetric condition. Avoidance index was calculated by subtracting the fraction of flies in AITC tube from fraction in vehicle alone tube.

Data set [1] relates to D. melanogaster flies. Put plainly: Proboscis extension response (PER) assay, solution contact with labellum. It counts as in vivo, Drosophila melanogaster. The text has this:
Proboscis extension response (PER) assay: As reactive electrophiles are commonly encountered as defensive agents present in food sources, we also examined AITC sensing in the context of fly feeding. Flies aged two to seven days were starved on wet Kim wipes overnight, knocked out on ice, and glued (Elmer's glue) by their wings on a glass slide. Flies recovered in a humidified chamber at least for 2 hrs at room temperature prior to assay. At the beginning of PER assay, the fly was satiated with water. […] When the proboscis was extended and maintained the contact for 2-3 sec with the presented food, it was scored as 1. If the contact is only brief or proboscis stuttered on the tastant, 0.5 was given as the score. When the proboscis never made contact within 5 sec, 0 was given. Each fly was offered five times per experiment, and between offerings water was given to satiation. As AITC was always accepted on first offering, frequency of PER was calculated as a fraction obtained from the […] offerings (sum of four scores divided by 4). For leg only PER assays, the procedures are same as above except that the flies tested were not allowed to contact with the offered food with proboscis, with either 12% sucrose or a mixture of 2 mM AITC/12% sucrose was offered ten times.

Data set [2] deals with D. melanogaster flies. Put plainly: Leg only PER assay. The class given is in vivo, Drosophila melanogaster. To be noted: 2 mM AITC/12% sucrose. The source says:
Proboscis extension response (PER) assay: As reactive electrophiles are commonly encountered as defensive agents present in food sources, we also examined AITC sensing in the context of fly feeding. Flies aged two to seven days were starved on wet Kim wipes overnight, knocked out on ice, and glued (Elmer's glue) by their wings on a glass slide. Flies recovered in a humidified chamber at least for 2 hrs at room temperature prior to assay. At the beginning of PER assay, the fly was satiated with water. Next, solution containing tastants was presented to the fly as a liquid ball on a pipette tip, touching the forelegs only. When the proboscis was extended and maintained the contact for 2-3 sec with the presented food, it was scored as 1. If the contact is only brief or proboscis stuttered on the tastant, 0.5 was given as the score. When the proboscis never made contact within 5 sec, 0 was given. Each fly was offered five times per experiment, and between offerings water was given to satiation. As AITC was always accepted on first offering, frequency of PER was calculated as a fraction obtained from the […] offerings (sum of four scores divided by 4). […]

For data set [3], the target named is T1, dTRPA1 (Drosophila melanogaster, UniProt Q7Z020).
T1 sequence (Q7Z020 1-1197): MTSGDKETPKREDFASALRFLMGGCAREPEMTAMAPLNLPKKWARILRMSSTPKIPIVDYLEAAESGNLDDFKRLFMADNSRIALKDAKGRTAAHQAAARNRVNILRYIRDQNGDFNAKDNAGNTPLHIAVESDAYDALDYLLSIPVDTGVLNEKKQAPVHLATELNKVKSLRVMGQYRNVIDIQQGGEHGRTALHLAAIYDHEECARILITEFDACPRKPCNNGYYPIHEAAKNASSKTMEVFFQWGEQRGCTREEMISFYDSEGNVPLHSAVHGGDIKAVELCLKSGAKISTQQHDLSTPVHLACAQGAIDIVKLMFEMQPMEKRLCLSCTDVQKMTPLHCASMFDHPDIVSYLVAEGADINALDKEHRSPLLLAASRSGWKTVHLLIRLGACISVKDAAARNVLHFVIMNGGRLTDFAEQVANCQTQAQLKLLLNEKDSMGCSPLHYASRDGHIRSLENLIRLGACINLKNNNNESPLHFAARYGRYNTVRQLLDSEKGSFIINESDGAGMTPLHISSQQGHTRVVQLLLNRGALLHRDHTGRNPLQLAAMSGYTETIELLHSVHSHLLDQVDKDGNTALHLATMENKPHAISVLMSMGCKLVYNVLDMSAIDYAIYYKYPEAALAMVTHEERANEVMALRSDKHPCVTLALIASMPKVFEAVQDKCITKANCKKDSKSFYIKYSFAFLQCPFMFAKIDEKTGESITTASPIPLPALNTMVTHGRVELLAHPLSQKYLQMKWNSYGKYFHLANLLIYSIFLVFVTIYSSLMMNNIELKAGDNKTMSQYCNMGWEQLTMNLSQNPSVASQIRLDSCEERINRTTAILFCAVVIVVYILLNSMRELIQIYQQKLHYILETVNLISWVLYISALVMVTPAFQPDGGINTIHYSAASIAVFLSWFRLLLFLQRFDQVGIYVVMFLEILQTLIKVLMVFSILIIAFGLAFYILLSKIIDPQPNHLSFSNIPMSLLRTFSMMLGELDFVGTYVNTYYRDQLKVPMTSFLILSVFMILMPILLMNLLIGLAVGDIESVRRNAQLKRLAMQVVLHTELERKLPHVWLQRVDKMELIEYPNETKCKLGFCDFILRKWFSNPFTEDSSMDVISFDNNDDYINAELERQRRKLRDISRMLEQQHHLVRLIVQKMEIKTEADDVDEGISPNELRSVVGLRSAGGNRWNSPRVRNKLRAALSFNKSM
Briefly: Agonist-evoked dTRPA1 currents, two-electrode voltage clamping on Xenopus laevis oocytes. The class given is cell-based. To be noted: for activation of wild-type dTRPA1 channel currents: 100 μM, applied 60-80 sec, currents at -60 and +60 mV. The protocol:
(§1) Two-electrode voltage clamping on Xenopus laevis oocytes: Agonist-evoked dTRPA1 currents were recorded as previously described (52), with the following modifications. Agonists of interest were added to the oocyte perfusion buffer (96 mM NaCl, 1 mM MgCl2, 4 mM KCl, and 5 mM HEPES, pH 7.6). Voltage was initially held at −60 mV, and each 300-ms voltage ramp (−60 mV to 60 mV) per sec was applied to dTRPA1- or AgTRPA1-expressing oocytes during perfusion of agonist-containing buffer. Typical resting membrane potentials of oocytes used were between −25 and −60 mV.

The subject of data set [4] is agTRPA1. Put plainly: Agonist-evoked agTRPA1 currents, two-electrode voltage clamping on Xenopus laevis oocytes. It counts as cell-based, Anopheles gambiae. As to conditions: 100 μM. The protocol: as §1
The next data set has as its system dTRPA1-2C. Briefly: AITC-evoked currents of dTRPA1-2C mutant channel in oocytes. As to conditions: 0.1 and 0.5 mM AITC normalized to 1.0 mM, -60 mV. The class given is cell-based, Drosophila melanogaster. The protocol:
as §1
Substitutions of cysteine/lysine residues in dTrpA1 were made by swapping a region of wild type cDNA sequence including codons of cysteine or lysine with mutated cassettes. A pair of mutually complemetary oligonucleotide primers with a desired mutation were prepared, and each of them was paired with upstream or downstream primers for the first two PCR reactions. The resulting two PCR fragments overlap in the mutant primer-annealing region that contains the replaced codons, and served as template for the second PCR reaction amplified only with the upstream and down stream primers. The upstream and down stream primers were designed to be just outside of specific restriction endonuclease target sites that were used to clone the second PCR products back in the wild type dTrpA1 cDNA background sequence. […]

In another data set the test system is flies. Briefly: Ingestion of AITC-laden food over a 60 minute period. To be noted: well before the end of the 60 minute assay. It counts as in vivo, Drosophila.
The next data set relates to Drosophila melanogaster. To be noted: cited from earlier work.
The target of data set [5] is T1, dTRPA1. Briefly: Warmth-evoked currents in dTRPA1-expressing Xenopus laevis oocytes (two electrode voltage clamp). It counts as cell-based. As to conditions: 50 micromolar Ruthenium Red, -60 mV. The protocol:
(§2) Oocyte-positive Xenopus laevis females were obtained from Nasco (Ft. Atkinson, Wis.), and maintained at ˜19° C. with 12 h/12 h dark/light cycles. Ovaries were surgically isolated, and treated with 1.5 mg/ml of collagenase type II (Worthington, Lakewood, N.J.) for 90 min, and individual oocytes were defolliculated with a pair of forceps. cRNA was transcribed by mMessage mMachine T3 kit (Ambion, Austin, Tex.) from each cDNA construct, and 50 nl aliquot per oocyte was injected using an automatic Drummond microinjector. (agTRPA1 sequence deposited as Genbank #108 1610.) Membrane potential was maintained at −60 mV by two electrode voltage clamping (TEVC) during warm-activated current recording. Resistance of pulled glass capillary electrodes filled with 3 M KCl was between 0.5 and 1.5 MΩ. Typical resting membrane potentials of oocytes used for current recording were between −25 and -60 mV. Current was recorded at 2 kHz and filtered to 1 kHz with the output filter of the amplifier (OC-725B, Warner instruments, Hamden, Conn.). […] Each voltage step lasted 100 ms following 10 ms holding at −60 mV, and the recorded current in the last 40 ms was averaged to determine the current amplitude at a given voltage.

Data set [6] concerns agTRPA1. Briefly: Warmth-evoked currents in agTRPA1-expressing Xenopus laevis oocytes (two electrode voltage clamp). To be noted: 50 micromolar Ruthenium Red, -60 mV. It counts as cell-based, Anopheles gambiae. The protocol:
as §2

The subject of data set [7] is motor neurons expressing dTRPA1. Briefly: Larval neuromuscular junction electrophysiology (EJPs in muscle 6). The class given is cell-based, Drosophila melanogaster. The text has this:
Larval neuromuscular junction electrophysiology: dTRPA1 was expressed in larval motor neurons using OK371-GAL4, a driver specific for glutamatergic neurons (Aberle et al., 2006) as described (61). In all preparations, the ventral ganglion was dissected away, leaving only motor axons and terminals. Larval muscle 6 (m6) was impaled with a sharp electrode (10-20 MO) containing 3M KCl. Resting membrane potentials were typically between −40 and −50 mV. Saline was perfused over the preparation, then increasing concentrations of cinnemaldehyde applied using a custom built gravity perfusion system. EJP frequency was measured-30 sec after application of each concentration using analysis scripts in Spike 2 (Cambridge Electronic Design, Cambridge, UK).

The values that follow come from patent US20110151018A1, “METHODS OF INSECT CONTROL” (BRANDEIS UNIVERSITY, priority 2008, published 2011).

Each structure is given as a SMILES string.

Regarding `C=CCN=C=S` [AITC, allyl isothiocyanate], the “AITC vapor avoidance compared to control” value with D. melanogaster adults was “significantly reduced AITC avoidance”. Moreover, the “PER upon the first offering” value in the data set with D. melanogaster flies [1] (12% sucrose containing 2 mM AITC, labellum) was “All flies also exhibited a PER”. Also, the “PER triggered by the four subsequent offerings” value in the data set on D. melanogaster flies [1] (control flies, 12% sucrose containing 2 mM AITC, labellum (sucrose alone 95%)) is reported as 33%. The “PER in response to multiple offerings” value in the data set on D. melanogaster flies [1] (dTrpA1 mutants, sucrose containing AITC) is recorded as “no reduction in PER”. Also, the “effect on PER elicited by contact of 12% sucrose solution with the legs” value with D. melanogaster flies [2] is reported as “no detectable effects”. Besides, on dTRPA1 [3], the “activation of wild-type dTRPA1 channel currents” value is given as “robustly activated”. In the data set on agTRPA1 [4], the “activation of agTRPA1 channel currents” value is recorded as “robust responses”. For the same molecule, the “AITC sensitivity of dTRPA1-2C compared to wild type dTRPA1” value in the data set on dTRPA1-2C is listed as “significantly decreased AITC sensitivity”. Moreover, the “incapacitation of flies on exposure” value in the data set on flies was “incapacitated all flies”. The “toxicity and mutagenicity to the fruit fly” value in the data set with Drosophila melanogaster is “toxic and mutagenic”.

Consider `N.N.N.N.N.N.N.N.N.N.N.N.N.N.[Cl-].[Cl-].[Cl-].[Cl-].[Cl-].[Cl-].[O-2].[O-2].[Ru+3].[Ru+3].[Ru+4]` [Ruthenium Red, ruthenium red], for which, on dTRPA1 [5], the “inhibition of warmth-activated dTRPA1 currents” value is on record as “inhibited”. The “inhibition of warmth-activated agTRPA1 currents” value with agTRPA1 [6] is on record as “inhibited”. The “inhibition of electrophile-evoked dTRPA1 currents” value on dTRPA1 [3] (100 μM RR) was “inhibited”.

As to `C=CC=O` [acrolein], the “activation of wild-type dTRPA1 channel currents” value on dTRPA1 [3] is listed as “robustly activated”. Further, the “toxicity and mutagenicity to the fruit fly” value with Drosophila melanogaster was “toxic and mutagenic”.

In the case of `Cn1c(=O)c2c(ncn2C)n(C)c1=O` [caffeine], in the data set on D. melanogaster flies [1] (caffeine-mediated), the “inhibition of the PER, dTrpA1 mutants versus controls” value is listed as “indistinguishable”.

Turning to `O=CC=Cc1ccccc1` [cinnamaldehyde], the “activation of wild-type dTRPA1 channel currents” value at dTRPA1 [3] is recorded as “robustly activated”. Besides, the “response of control motor neurons” value in data set [7] (genetic controls without dTRPA1) was “unresponsive”. The “activation of motor neurons expressing dTRPA1 (EJPs in target muscles)” value in data set [7] (ok371-Gal4 driven dTRPA1, 3rd instar larvae) is reported as “robustly activated”.
